Results reported in the supplement of paper PMC10307832.

Assays:
Assay in all cases: relative viability (nuclei count vs DMSO), 5 days (fraction); higher = more cells survive
Crenolanib + Foretinib = compound: CC1(COc2ccc3c(c2)ncn3-c2ccc3cccc(N4CCC(N)CC4)c3n2)COC1 [Crenolanib] + COc1cc2c(Oc3ccc(NC(=O)C4(C(=O)Nc5ccc(F)cc5)CC4)cc3F)ccnc2cc1OCCCN1CCOCC1 [Foretinib] (partner 0.25 µM)
Method in brief: (§1)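 The day after seeding in 1536-well plates, lung cancer cell lines were treated by pin tool with a single drug, or with a fixed anchor-drug dose together with five library-drug doses (not always all listed) in √10 steps. After 5 days, a combined fix-and-stain solution (final 0.05% Triton X-100, 1% formaldehyde, 1 ug/ml Hoechst) was added. Nuclei counted on 4× images gave relative viability as treated counts over vehicle counts, reported as the median of duplicate plates.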

Tivantinib + OSI-027 = compound: O=C1NC(=O)[C@@H](c2cn3c4c(cccc24)CCC3)[C@@H]1c1c[nH]c2ccccc12 [Tivantinib] + COc1cccc2cc(-c3nc([C@H]4CC[C@H](C(=O)O)CC4)n4ncnc(N)c34)[nH]c12 [OSI-027] (partner 0.5 µM)
Method in brief: as §1

Tivantinib + Lapatinib = compound: O=C1NC(=O)[C@@H](c2cn3c4c(cccc24)CCC3)[C@@H]1c1c[nH]c2ccccc12 [Tivantinib] + CS(=O)(=O)CCNCc1ccc(-c2ccc3ncnc(Nc4ccc(OCc5cccc(F)c5)c(Cl)c4)c3c2)o1 [Lapatinib] (partner 2 µM)
Method in brief: as §1

Tivantinib + Pemetrexed = compound: O=C1NC(=O)[C@@H](c2cn3c4c(cccc24)CCC3)[C@@H]1c1c[nH]c2ccccc12 [Tivantinib] + Nc1nc2[nH]cc(CCc3ccc(C(=O)N[C@@H](CCC(=O)O)C(=O)O)cc3)c2c(=O)[nH]1 [Pemetrexed] (partner 0.2 µM)
Method in brief: as §1

| Cell Line | relative viability (Crenolanib + Foretinib; first compound 0.01 µM) | relative viability (Crenolanib + Foretinib; first compound 0.03162 µM) | relative viability (Crenolanib + Foretinib; first compound 0.1 µM) | relative viability (Crenolanib + Foretinib; first compound 0.3162 µM) | relative viability (Crenolanib + Foretinib; first compound 1 µM) | relative viability (Tivantinib + OSI-027; first compound 0.01 µM) | relative viability (Tivantinib + OSI-027; first compound 0.03162 µM) | relative viability (Tivantinib + OSI-027; first compound 0.1 µM) | relative viability (Tivantinib + OSI-027; first compound 0.3162 µM) | relative viability (Tivantinib + Lapatinib; first compound 0.01 µM) | relative viability (Tivantinib + Lapatinib; first compound 0.03162 µM) | relative viability (Tivantinib + Lapatinib; first compound 0.1 µM) | relative viability (Tivantinib + Lapatinib; first compound 0.3162 µM) | relative viability (Tivantinib + Pemetrexed; first compound 0.01 µM) | relative viability (Tivantinib + Pemetrexed; first compound 0.03162 µM) | relative viability (Tivantinib + Pemetrexed; first compound 0.1 µM) | relative viability (Tivantinib + Pemetrexed; first compound 0.3162 µM) |
| --- | --- | --- | --- | --- | --- | --- | --- | --- | --- | --- | --- | --- | --- | --- | --- | --- | --- |
| NCI-H1975 | 1.06 | 0.969 | 0.847 | 0.94 | 1.04 | 0.751 | 0.752 | 0.611 | 0.691 | 0.943 | 0.863 | 0.795 | 1.1 | 0.294 | 0.287 | 0.249 | 0.27 |
| NCI-H1993 | 0.768 | 0.551 | 0.719 | 0.889 | 0.731 | 0.538 | 0.57 | 0.563 | 0.61 | 0.94 | 0.74 | 0.706 | 0.852 | 0.621 | 0.53 | 0.586 | 0.541 |
| NCI-H2009 | 1.25 | 1.21 | 1.09 | 1.27 | 1.1 | 0.677 | 0.529 | 0.61 | 0.713 | 0.917 | 0.595 | 0.914 | 0.958 | 1.01 | 1.12 | 1.04 | 1.08 |
| NCI-H2023 | 0.785 | 1.01 | 0.942 | 1.05 | 1.02 | 0.372 | 0.363 | 0.356 | 0.341 | 0.884 | 0.735 | 0.703 | 0.577 | 0.278 | 0.206 | 0.253 | 0.191 |
| NCI-H2085 | 1.01 | 0.845 | 0.847 | 1.04 | 1.12 | 0.773 | 0.582 | 0.851 | 0.412 | 0.824 | 0.77 | 0.765 | 0.82 | 0.975 | 0.773 | 0.876 | 0.75 |
| NCI-H2087 | 1.23 | 1.32 | 1.1 | 1.27 | 1.27 | 0.635 | 0.511 | 0.465 | 0.478 | 1.1 | 1.16 | 0.862 | 1.13 | 0.645 | 0.78 | 0.58 | 0.603 |
| NCI-H2126 | 1.24 | 1.37 | 0.985 | 1.41 | 1.23 | 0.639 | 0.63 | 0.658 | 0.549 | 0.799 | 0.737 | 0.77 | 0.799 | 0.677 | 0.633 | 0.706 | 0.547 |
| NCI-H2170 | 0.961 | 0.989 | 0.719 | 0.99 | 1.02 | 0.645 | 0.718 | 0.652 | – | 0.157 | 0.252 | 0.277 | – | 0.288 | 0.285 | 0.244 | – |
| NCI-H2228 | 0.994 | 0.923 | 0.693 | 1.14 | 1.04 | – | 0.548 | 0.541 | 0.234 | 1.12 | 1.08 | 1.07 | 0.676 | 0.363 | 0.319 | 0.329 | 0.352 |
| NCI-H2347 | 0.879 | 0.757 | – | 1.02 | 0.901 | 0.48 | 0.386 | 0.418 | 0.475 | 0.891 | 0.923 | 0.956 | 1 | 0.405 | 0.454 | 0.394 | 0.419 |
| NCI-H2405 | 1.16 | 1.05 | – | 1.02 | 1.06 | 0.717 | 0.637 | 0.632 | 0.574 | 1.11 | 1.13 | 1.06 | 1.08 | 1.12 | 1.25 | 1.09 | 1.05 |
| NCI-H3122 | 0.927 | 0.98 | 0.985 | 0.963 | 1.04 | 0.985 | 0.914 | 0.93 | 0.207 | 1.08 | 0.94 | 0.973 | 1.01 | 0.179 | 0.199 | 0.196 | 0.162 |
| PC-3 [JPC-3] | 1.16 | 1.12 | 0.955 | 1.05 | 1.03 | 0.841 | 0.724 | 0.716 | 0.48 | 0.433 | 0.546 | 0.424 | 0.486 | 1.24 | 1.27 | 1.21 | 0.72 |
| PC-14 | 1.01 | 0.904 | 0.952 | 1.06 | 0.933 | 0.942 | 0.784 | 0.755 | 0.598 | 0.307 | 0.35 | 0.3 | 0.325 | 0.142 | 0.123 | 0.147 | 0.103 |
| RERF-LC-KJ | 0.852 | 0.838 | 0.906 | 0.968 | 0.909 | 0.592 | 0.646 | 0.512 | 0.389 | 0.911 | 0.9 | 0.872 | 0.759 | 0.38 | 0.452 | 0.445 | 0.44 |
| SK-LU-1 | 0.802 | 0.779 | 0.538 | 0.964 | 0.905 | 0.364 | 0.342 | 0.381 | 0.363 | 1.06 | 0.856 | 0.835 | 0.855 | 0.935 | 1.06 | 0.96 | 1.04 |
| SK-MES-1 | 1.05 | 0.876 | 0.974 | 0.936 | 1.14 | 0.668 | 0.435 | 0.554 | 0.482 | 0.441 | 0.426 | 0.387 | 0.417 | 0.95 | 0.913 | 0.816 | 0.783 |
| SW 1573 | 1.04 | 0.918 | 0.943 | 0.9 | 0.966 | 0.636 | 0.612 | 0.562 | 0.556 | 1.16 | 0.97 | 0.928 | 1.07 | 0.918 | 0.797 | 0.818 | 0.76 |
